Test results as given in patent US8222008B2, “Methods and compositions for treating cancer” (The Administrators of The Tulane Educational Fund, priority 2003, dated 2012).
Marks after values point to notes of the source that are not given here.

Key:
Format in all cases: cell-based, human
MCF-7 (ER+) = test: Apoptosis in breast cancer cell lines, CaspACE assay with flow cytometry; conditions: Tamoxifen 100 μM, 16 hours
Excerpt: (§1) The apoptotic effect of CDME was compared to that of tamoxifen using the CaspACE™ assay system (Promega) and conventional flow cytometry techniques.
(§2) All cell lines were obtained from the American Type Culture Collection, P.O. Box 1549, Manassas, Va., 20108 unless otherwise indicated. The cell lines studied were estrogen receptor-negative breast cancer cell lines MDA-MB-231 (ATCC Accession No. HTB-26) and MDA-MB-468 (ATCC Accession No. HTB-132) and estrogen receptor-positive breast cancer cell lines, MCF-7 (ATCC Accession No. HTB-22) and T-47D (ATCC Accession No. HTB-133).
(§3) All cell lines were grown on the bottom of 12-well flasks in Gibco RPMI-1640, until they reached the confluency of about 50%. After that, the medium was exchanged with DMEM (Sigma, D-5030), supplemented with 10% charcoal-treated FBS.
(§4) After four days (at confluency of about 75%), cells were treated by exposure to either CDME (500 μM) or tamoxifen (100 μM) or neither for 16 hours at 37° C. CaspACE™ assay analysis of the treated and control cells was performed as described in Example 2 and measured via flow cytometry. Note that the dosage of tamoxifen was a maximum positive control dose, higher than that normally administered for chemotherapy.

MDA-MB-231 (ER−) = test: as above; conditions: Tamoxifen 100 μM, 16 hours
Excerpt: as §1, §2, §3, §4

MDA-MB-468 (ER−) = test: as above; conditions: Tamoxifen 100 μM, 16 hours
Excerpt: as §1, §2, §3, §4

T-47D (ER+) = test: as above; conditions: Tamoxifen 100 μM, 16 hours
Excerpt: as §1, §2, §3, §4

[1] = tested on: GM00008 nephropathic cystinotic fibroblasts; test: Apoptosis by apoptotic triggers, CaspACE assay; conditions: TNF-a 30 ng/mL with actinomycin D 2.5 μg/mL for 16 hours
Method: (§5) Normal and cystinotic fibroblasts were purchased from the Coriell Mutant Cell Repository, and cultured in Coon modification of Ham F12 medium, supplemented with 10% fetal calf serum (FCS). Renal proximal tubule epithelial (RPTE; Biowhittaker Corp.) were cultured in renal epithelial basal medium supplemented with one Singlequots™ kit (Biowhittaker) per 500 mL to make renal epithelial growth media (REGM, Biowhittaker). Fibroblasts and RPTE were maintained in a 5% carbon dioxide, 95% air, humidified incubator at 37° C. (Thoene J. G. et al, 1976 J. Clin. Invest, 58:180-189).
(§6) Induction of apoptosis and assays for its detection were performed using commercially available reagents. Normal and cystinotic fibroblasts were matched for passage number (±3) and cell density, and then exposed to an apoptotic trigger. One apoptotic trigger used was TNF-a (30 ng/mL) with actinomycin D (2.5 μg/mL) for 16 hours. Another trigger was anti-Fas antibody (500 ng/mL) with actinomycin D (2.5 μg/mL) for 16 hours. A third trigger to induce apoptosis in the cells was Ultraviolet B light (60 mJ). See, e.g., previously described protocols of Aggarwal B B, 1992 Immunol. Ser., 56:61-78; Higuchi M. et al, 1995 J. Immunol. Meth., 178:173-181; Itoh N, et al, 1991 Cell, 66:233-243; Itoh N. et al, 1993 J. Biol. Chem., 268:10932-10937. Serum withdrawal was also used as a apoptotic stimulus (Lieberthal W, et al, 1998 Am. J. Physiol. 275:F691-F702; Verzola D. et al, 2001 Exp Nephrol., 9:366-371; Iglesias J. et al, 1999 Am. J. Physiol. 277:F711-F712; Kulkarni G V, et al, 1994 J. Cell Sci., 107:1169-1179), in which case the cells were incubated in F12 medium without serum for 24 hours and then analyzed for apoptosis.
(§7) 1. The CaspACE Assay • CaspACE (Promega) is an FITC-conjugated cell-permeable form of the pan-caspase inhibitor zVAD-Fmk, which binds to activated caspase(s). Cells were incubated in FITC-VAD-Fmk-containing medium (10 μM for 30 minutes at 37° C.), washed, and then fixed in 10% buffered formalin (30 minutes at room temperature) before analysis. The cells were visually enumerated by fluorescence microscopy, scoring a minimum of five fields (250 to 300 cells) for fluorescence in triplicate followed by counting all cells in the same field by light microscopy, with a minimum of 750 cells scored per condition. The apoptosis rate is the total number of cells that fluoresce divided by the total cells in the field.
(§8) Apoptosis was induced in three nephropathic cystinotic, two normal, one intermediate cystinotic, and one ocular cystinotic fibroblast lines by three separate inducers. In one experiment, cells were treated with apoptosis inducers as indicated above. Apoptosis in these lines was assessed by CaspACE assay and analyzed by fluorescence microscopy. A minimum of 250 cells was scored per condition, in triplicate. Thus at least 750 cells were scored precondition. T-statistics: P<0.001 for average nephropathic versus average normal. P<0.05 for ocular versus nephropathic. P>0.05 for ocular versus normal, intermediate versus nephropathic, and intermediate versus normal.

[2] = tested on: GM00010 normal fibroblasts; test: Apoptosis by apoptotic triggers, CaspACE assay; conditions: TNF-a 30 ng/mL with actinomycin D 2.5 μg/mL for 16 hours
Method: as §5, §6, §7, §8

[3] = tested on: GM00046 nephropathic cystinotic fibroblasts; test: Apoptosis by apoptotic triggers, CaspACE assay; conditions: TNF-a 30 ng/mL with actinomycin D 2.5 μg/mL for 16 hours
Method: as §5, §6, §7, §8

[4] = tested on: GM00379 intermediate cystinotic fibroblasts; test: Apoptosis by apoptotic triggers, CaspACE assay; conditions: TNF-a 30 ng/mL with actinomycin D 2.5 μg/mL for 16 hours
Method: as §5, §6, §7, §8

[5] = tested on: GM00760 nephropathic cystinotic fibroblasts; test: Apoptosis by apoptotic triggers, CaspACE assay; conditions: TNF-a 30 ng/mL with actinomycin D 2.5 μg/mL for 16 hours
Method: as §5, §6, §7, §8

[6] = tested on: GM05399 normal fibroblasts; test: Apoptosis by apoptotic triggers, CaspACE assay; conditions: TNF-a 30 ng/mL with actinomycin D 2.5 μg/mL for 16 hours
Method: as §5, §6, §7, §8

[7] = tested on: GM08761 ocular cystinotic fibroblasts; test: Apoptosis by apoptotic triggers, CaspACE assay; conditions: TNF-a 30 ng/mL with actinomycin D 2.5 μg/mL for 16 hours
Method: as §5, §6, §7, §8

[8] = tested on: nephropathic cystinotic fibroblasts (AVG of 3); test: Apoptosis by apoptotic triggers, CaspACE assay; conditions: TNF-a 30 ng/mL with actinomycin D 2.5 μg/mL for 16 hours, AVG of 3 nephropathic lines
Method: as §5, §6, §7, §8

[9] = tested on: normal fibroblasts (AVG of 2); test: Apoptosis by apoptotic triggers, CaspACE assay; conditions: TNF-a 30 ng/mL with actinomycin D 2.5 μg/mL for 16 hours, AVG of 2 normal lines
Method: as §5, §6, §7, §8

[10] = tested on: GM00008 nephropathic cystinotic fibroblasts; test: Apoptosis by apoptotic triggers, TUNEL assay; conditions: TNF-a 30 ng/mL with actinomycin D 2.5 μg/mL for 16 hours
Method: as §5, §6
(§9) 2. TUNEL Assay • The TUNEL assay employs terminal deoxynucleotidyl transferase (TdT) to label the ends of double stranded DNA breaks, which occur in apoptotic cells, with FITC-conjugated dUTP. Cells were fixed in 4% buffered formalin, washed, incubated in permeabilization solution (0.1% Triton X-100 in 0.1% Na Citrate) for 2 minutes on ice and then stained with 25 μL of TdT/45 μL of labeled dNTP mix for 40 minutes at 37° C. The cells were visually enumerated by fluorescence microscopy, scoring a minimum of five fields (250 to 300 cells) for fluorescence in triplicate followed by counting all cells in the same field by light microscopy, with a minimum of 750 cells scored per condition. The apoptosis rate is the total number of cells that fluoresce divided by the total cells in the field.
(§10) In another experiment, cells were treated with apoptosis inducers as indicated, stained with TUNEL reagent, and analyzed by florescence microscopy. A minimum of 250 cells were scored per conditions in triplicate. […] P>0.05 for ocular versus normal and intermediate; P=0.01 for ocular versus nephropathic.

[11] = tested on: GM00010 normal fibroblasts; test: Apoptosis by apoptotic triggers, TUNEL assay; conditions: TNF-a 30 ng/mL with actinomycin D 2.5 μg/mL for 16 hours
Method: as §5, §6, §9, §10

[12] = tested on: GM00046 nephropathic cystinotic fibroblasts; test: Apoptosis by apoptotic triggers, TUNEL assay; conditions: TNF-a 30 ng/mL with actinomycin D 2.5 μg/mL for 16 hours
Method: as §5, §6, §9, §10

[13] = tested on: GM00379 intermediate cystinotic fibroblasts; test: Apoptosis by apoptotic triggers, TUNEL assay; conditions: TNF-a 30 ng/mL with actinomycin D 2.5 μg/mL for 16 hours
Method: as §5, §6, §9, §10

[14] = tested on: GM00760 nephropathic cystinotic fibroblasts; test: Apoptosis by apoptotic triggers, TUNEL assay; conditions: TNF-a 30 ng/mL with actinomycin D 2.5 μg/mL for 16 hours
Method: as §5, §6, §9, §10

[15] = tested on: GM05399 normal fibroblasts; test: Apoptosis by apoptotic triggers, TUNEL assay; conditions: TNF-a 30 ng/mL with actinomycin D 2.5 μg/mL for 16 hours
Method: as §5, §6, §9, §10

[16] = tested on: GM08761 ocular cystinotic fibroblasts; test: Apoptosis by apoptotic triggers, TUNEL assay; conditions: TNF-a 30 ng/mL with actinomycin D 2.5 μg/mL for 16 hours
Method: as §5, §6, §9, §10

[17] = tested on: nephropathic cystinotic fibroblasts (AVG of 3); test: Apoptosis by apoptotic triggers, TUNEL assay; conditions: TNF-a 30 ng/mL with actinomycin D 2.5 μg/mL for 16 hours, AVG of 3 nephropathic lines
Method: as §5, §6, §9, §10

[18] = tested on: normal fibroblasts (AVG of 2); test: Apoptosis by apoptotic triggers, TUNEL assay; conditions: TNF-a 30 ng/mL with actinomycin D 2.5 μg/mL for 16 hours, AVG of 2 normal lines
Method: as §5, §6, §9, §10

[19] = tested on: cathepsin B in normal and nephropathic cystinotic fibroblasts; test: Cathepsin B localisation by immunohistochemistry; conditions: after TNF-a exposure; Lysotracker red and anti-cathepsin B staining
Method: Cells were stained by Lysotracker® Red stain (Molecular Probes) for 5 minutes at room temperature, washed twice in PBS, and then fixed in 4% formalin for 1 hour. Slides were immersed in blocking buffer (PBS, pH 7.2, 0.5% Carnation® dry milk, 0.1% Triton® X-100 reagent) for 20 minutes at room temperature, washed twice in PBS, and then incubated with primary antibody (anti-cathepsin B, Santa Cruz Biotechnologies) diluted 1:100 for 2 hours at room temperature, followed by incubation with secondary antibody (FITC-conjugated rabbit anti-goat, Santa Cruz Biotechnologies), at 4° C. overnight. Slides were washed twice with PBS and then sealed with cover slips and viewed using a Leica® DMRX deconvoluting microscope.
To substantiate that lysosomes are perneabilized by TNF-a (Guicciardi M, 2000J. Clin. Invest., 106:1127-1137) under these conditions, cathepsin B (a lysosomal cysteine protease) was localized by immunohistochemistry in normal and nephropathic cystinotic cells before and after induction of apoptosis. Fibroblasts were maintained under normal culture conditions, exposed to TNF-a, loaded with Lysotracker® red reagent, fixed, and stained for cathepsin B using an anti-cathepsin B antibody. Photographs were made via a deconvoluting microscope.
Lysosomes were identified with Lysotracker red dye. […]

CC/C(=C(\c1ccccc1)c1ccc(OCCN(C)C)cc1)c1ccccc1 [Tamoxifen, tamoxifen, reference compound]
percent of apoptotic cells (±S.D.) (MCF-7 (ER+)): 98.47 ± 0.53%
percent of apoptotic cells (±S.D.) (MDA-MB-231 (ER−)): 98.92 ± 0.99%
percent of apoptotic cells (±S.D.) (MDA-MB-468 (ER−)): 90.37 ± 1.70%
percent of apoptotic cells (±S.D.) (T-47D (ER+)): 99.91 ± 0.08%

TNF-a
% Apoptosis [1]: 14.9%
% Apoptosis [2]: 9.2%
% Apoptosis [3]: 16.1%
% Apoptosis [4]: 11.4%
% Apoptosis [5]: 13.5%
% Apoptosis [6]: 6.3%
% Apoptosis [7]: 8.2%
% Apoptosis [8]: 14.8%
% Apoptosis [9]: 7.8%
% Apoptosis [10]: 17.1%
% Apoptosis [11]: 12.8%
% Apoptosis [12]: 15.3* %
% Apoptosis [13]: 8.2%
% Apoptosis [14]: 19.3%
% Apoptosis [15]: 11.4%
% Apoptosis [16]: 5.5%
% Apoptosis [17]: 17.2%
% Apoptosis [18]: 12.1%
localisation of cathepsin B [19]: translocation of cathepsin B from a lysosomal location to a diffuse cytosolic location
